Data from patent US12037419B2 (The Feinstein Institutes for Medical Research, priority 2016, dated 2024).

Legend:
human monocytes [1] = experiment: Induction of anti-inflammatory molecules / M2-like phenotype (Mer, PDL-1, IL-10, CD163) in monocytes; assay type: cell-based
Method: (§1) Monocyte isolation and stimulation: Human PBMCs were obtained following institutional guidelines of the Feinstein Institute for Medical Research (Feinstein) and isolated from blood of healthy donors by density centrifugation (New York Blood Bank). Monocytes were negatively enriched using a human monocyte enrichment kit (Stem Cell Technology). Purity of monocytes (≥90% CD11b+CD14+LAIR-1+) was determined by flow cytometry. […] Splenic murine monocytes from wild type mice, RAGE deficient or LAIR-1 conditional knockout mice were isolated using EasySep mouse monocyte enrichment kit (Stem Cell Technology). C57BL/6 mice, Lysozyme2-Cre transgenic mice were purchased from Jackson Laboratory. Myeloid specific LAIR-1 conditional knockout mice (Lysozyme2-Cre×LAIR fl/fl) were bred and maintained in our facility (Feinstein) under specific pathogen-free conditions. RAGE deficient mice (Department of Medicine, Karolinska Institute Stockholm, Sweden) were maintained at Feinstein. Eight-to ten weeks old male mice were used for experiments. All animal procedures were approved by the Feinstein Institutional Animal Care and Use Committee.
(§2) RT-PCR analysis and primers: Total RNA was extracted from cells (1-2×10^6 cells per sample) with an RNeasy kit (Qiagen, Venlo, Limburg, Netherlands) and cDNA was generated using an iScript cDNA synthesis kit (Bio-Rad laboratories). […] The relative induction was calculated by 2-ΔΔCt.
(§3) Cytokine analysis: Cytokine levels were measured using a Human Proinflammatory 7-plex assay following the manufacturer's protocols (Meso Scale Discovery (MSD). MSD plates were analyzed on the MS2400 imager (MSD). All standards and samples were run in duplicates.
Flow cytometry: Cells were suspended in staining buffer containing 2% BSA and incubated with Fc block (Miltenyi Biotec) for 15 min on ice. […] Events were acquired using either an LSRII or Fortessa cell analyzer (BD Biosciences), and data were analyzed using FlowJo (Tree star).

[2] = system: RAGE, LAIR-1, SHP-1, NF-κB signaling pathway; experiment: Immunoprecipitation, Western blot, phospho-immunoreceptor array and p65 nuclear translocation in monocytes; assay type: cell-based, human
Method: Immunofluorescence Microscopy: In situ proximal ligation assay was performed according to manufacturer's protocol (Duolink, Sigma). Following stimulation, human monocytes were washed three times with ice-cold PBS and were fixed with 4% (wt/vol) PFA for 1 hour at room temperature, seeded (2×10^5 cells) on slides using cytospin (Shandon), permeablized with chilled MeOH for 4 min and with PBS/0.1% (vol/vol) Triton X-100 and blocked for 1 h at room temperature. Cells were then incubated overnight with a primary antibody pair directed to rabbit anti-RAGE (ab3611, Abcam) and to mouse anti-LAIR-1 (BD Bioscience), respectively. The cells were incubated with corresponding PLA probes conjugated to oligonucleotides (mouse MINUS and rabbit PLUS), then followed by ligation and rolling circle amplification in close proximity. Images were acquired using AxioVision software and a confocal microscope (Olympus). Quantification was performed using Zen2 (Zeiss). […] Cells were washed three times with cold-PBS and fixed with 4% PFA and stained with PECy5-anti-human CD14 antibody (BD biosciences) or propidium iodide (PI). […] PI or DAPI was used for nuclear staining. […] After washing, cells were stained with Alexa Fluor 594 anti-rabbit IgG (Life Technologies), and mounted DAPI-containing medium. Images were acquired using an AxioImage Z1 (Zeiss) apotome enabled (Zeiss) Fluorescent-intensity analysis of the images was performed using Zen2 (Zeiss).
Immunoprecipitation and Western blot. Total protein extracts were prepared as described (22). Monocytes (2-5×10^6 cells/ml) were washed in ice-cold PBS and lysed in 1×RIPA buffer containing complete protease inhibitor mixture (Roche) and phosphatase inhibitor (Pierce) for 1 h on ice. For immunoprecipitation, anti-LAIR-1 antibody (BD Bioscience) or anti-RAGE antibody (Abcam) was incubated with the lysate overnight at 4° C. prior to being incubated with protein G-dynabeads (Life Technologies). Proteins were then separated by SDS-PAGE, transferred to nitrocellulose or PVDF membranes, and immunoblotted with appropriate antibodies. Bands were detected using the ECL reagent (Thermo Scientific) or using the Odyssey Infrared Imaging system (LI-COR) to detect secondary antibodies conjugated with Infrared 680 or 800.
Phospho-immunoreceptor array: Tyrosine phosphorylated LAIR-1 was determined by human phosphoimmunoreceptor array (Proteome Profiler Array; R&D systems) according to the manufacturer's protocol and as described (22). Phosphorylation levels of individual analytes were determined by average pixel density of duplicate spots; values were obtained after subtraction of background and were normalized to positive control spots.

[3] = system: splenic monocytes of C57BL/6 wild type, RAGE deficient or LAIR-1 deficient mice; experiment: HMGB1-induced gene transcription in murine splenic monocytes (wild type, RAGE deficient, LAIR-1 deficient); assay type: cell-based, mouse
Method: as §1
(§4) RT-PCR analysis and primers: Total RNA was extracted from cells (1-2×10^6 cells per sample) with an RNeasy kit (Qiagen, Venlo, Limburg, Netherlands) and cDNA was generated using an iScript cDNA synthesis kit (Bio-Rad laboratories). Real Time-PCR was performed on a Light Cycler 480 II (Roche) using Light Cycler 480 master mix with primers (Applied Biosystems) for IFNα1 (Hs00256882), IFNα7 (mm02525960), MX1 (Hs00182073, mm01217998), IL-6 (Hs00985639, mm99999064), TNFα (Hs00174128, mm00443258), IL-12a (Hs00168405), Mer (Hs01031973), PDL-1 (Hs01125301), IL-10 (Hs00961622), CD163 (Hs00174705), HPRT1 (Hs99999909, mm01545399) and Polr2a (Hs00172187). The genes of interest were normalized to the expression of house keeping genes and were compared to a control condition with no treatment. The relative induction was calculated by 2-ΔΔCt.

human monocytes [4] = experiment: CpG- or LPS-induced cytokine transcription in monocytes; assay type: cell-based
Method: as §1, with “All animal procedures were approved by the Feinstein Institutional Animal Care and Use Committee.” left out
as §2

human monocytes [5] = experiment: HMGB1-induced monocyte activation (cytokine mRNA by q-PCR, protein by ELISA/MSD); assay type: cell-based
Method: as §1, §4
Transfection: For RNA interference assays, human monocytes were transfected using an Amaxa Nucleofector kit (Lonza) with a greater than 40% transfection efficiency. siRNAs were obtained from Qiagen. The target sequence of human LAIR1-11 is […] (SEQ ID NO:9). The efficiency of knockdown was determined by flow cytometry and q-PCR.
as §3

[6] = HMGB1 3 μg/ml, C1q 25 μg/ml, 6 h
[7] = C1q 25 μg/ml, HMGB1 3 μg/ml, 6 h

What does the source list for “C1q: C1q purified from pooled normal human sera, obtained from Complement Technology”?
potency of physiologic C1q levels versus SLE levels (25-50 μg/ml) for Mer, PDL-1, IL-10, CD163 mRNA (human monocytes [1]; C1q 10, 25, 50 or 75 μg/ml with HMGB1, 24 h): more potent; transcription and protein expression of anti-inflammatory factors (Mer, PDL-1, IL-10, CD163) (human monocytes [1]; together with HMGB1 3 μg/ml, C1q 25 μg/ml or C1q tail 53 μg/ml, 24 h): induced the transcription and protein expression of a variety of anti-inflammatory factors; phosphorylation of LAIR-1 [2]: induces phosphorylation of LAIR-1; HMGB1-induced activation and nuclear translocation of NF-κB ([2]; P-IKKα, p65, 1 h): inhibited the downstream activation and nuclear translocation of NF-κB; recruitment of SHP-1 to LAIR-1 ([2]; both HMGB1 and C1q present): more SHP-1 is recruited to LAIR-1; HMGB1-induced phosphorylation of RAGE ([2]; in the presence of C1q): diminished; HMGB1-induced gene transcription in RAGE-deficient cells [3, 6]: no change in HMGB1-induced gene transcription; HMGB1-induced proinflammatory cytokine gene transcription in wild type cells [3, 6]: reduction in HMGB1-induced proinflammatory cytokine gene transcription; HMGB1-induced mRNA expression in LAIR-1 deficient monocytes ([3]; Lysozyme-Cre x floxed LAIR-1 mice): no inhibitory effect; CpG-mediated induction of pro-inflammatory cytokines and IFN inducible genes (human monocytes [4]; CpG 2216): inhibits CpG-mediated induction of pro-inflammatory cytokines; LPS-induced cytokine transcription (human monocytes [4]; LPS): no effect on LPS-induced cytokine transcription; HMGB1-induced IFN, IL-6 and TNFα in adherent cell fraction of PBMCs (human monocytes [5]; [7]): inhibited this HMGB1-mediated activation; HMGB1-mediated cytokine induction in monocytes treated with LAIR-1-specific siRNA (human monocytes [5]; [7]): no effect; HMGB1-induced monocyte activation in the presence of soluble decoy receptor LAIR-2 (human monocytes [5]; C1q 25 μg/ml, LAIR-2 20 μg/ml, HMGB1 3 μg/ml, 6 h): failed to inhibit monocyte activation; transcription of cytokine genes in the absence of HMGB1 (human monocytes [5]; C1q alone, serum free medium): did not alter transcription; monocyte activation by HMGB1, C1q levels commonly present in SLE patients (human monocytes [5]; C1q ˜25-50 μg/ml): less inhibitory; HMGB1-mediated cytokine transcription and protein induction (human monocytes [5]; HMGB1 3 μg/ml, various C1q concentrations, serum free medium, 6 h mRNA, 24 h protein): counteracted the HMGB1-mediated cytokine transcription and protein induction in a dose-dependent manner; inhibitory effect of C1q at increased HMGB1 level (human monocytes [5]; HMGB1 10 μg ml-1): abrogated the inhibitory effect of C1q; monocyte activation by HMGB1, physiologic levels of C1q (human monocytes [5]; physiologic C1q levels): effectively blocked monocyte activation
